Assay results reported in publication PMC11356900, “Synthesis, Structural Properties and Biological Activities of Novel Hydrazones of 2-, 3-, 4-Iodobenzoic Acid” (Molecules, 2024).
≈ marks a conversion by molar mass, not a printed value. Read-outs that look alike come from different tables or passages of the source.

Columns and labels:
[1] = test system: L929 cell line; test: MTT cytotoxicity assay; format: cell-based, mouse; conditions: for cytotoxicity: L929, 24 h culture
Method: Among all the newly synthesized compounds, four compounds designated as: 14, 20, 21 and 27 were selected for further testing of their cytotoxic properties at the doses of 10, 25, 50, 75 and 100 µM. The cytotoxic properties of the above compounds were tested on the cancer cell lines, i.e., A549 (ECACC 86012804) (non-small-cell lung cancer), T47D (ECACC 85102201) (breast cancer), HeLa (ATCC® CCL-2™) (cervical cancer) and normal line L929 (NCTC clone 929, ATCC® CCL-1™) (mouse fibroblasts) using the MTT test for 24- and 48 h cultures.
A549 (ECACC 86012804) (non-small-cell lung cancer) and T47D (ECACC 85102201) (breast cancer) were obtained from ECACC and propagated in Dulbecco’s Minimal Essential Medium, supplemented with 2 mM of glutamine, antibiotics ([…] streptomycin, 1% of 100 U/L penicillin) and 10% Fetal Bovine Serum. HeLa (ATCC® CCL-2™) (cervical cancer) and L929 (NCTC clone 929, ATCC® CCL-1™) (mouse fibroblasts) cell lines were obtained from ATCC and propagated in the Eagle Minimal Essential Medium supplemented with antibiotics ([…] streptomycin, 1% of 100 U/L penicillin) and with 10% and 5% FBS, respectively. The cell line was routinely grown in 75 cm^2 tissue culture flasks and kept in an incubator (humidified atmosphere of 5% CO2 at 37 °C). All examined cell lines were tested against mycoplasma contamination with microbiological assays.
The cell viability of tested compounds (14, 20, 21 and 27) was assessed by the MTT assay. In brief, the exponentially growing cells were plated in 100 μL/well in 96-well plates. After 24 h culturing, the cells were treated with different concentrations of compounds (range 10–100 μM). After 24 and 48 h of incubation, 10 μL of 5 mg/mL MTT was added to each well and the plates were incubated at 37 °C for additional 4 h. The medium was subsequently removed, the purple-colored precipitates of formazan were dissolved in 100 μL of DMSO. The color absorbance was recorded at 570 nm using a BioTek model EPOCH ELISA plate reader. All experiments were performed in triplicate. The absorbance values were in the range of linearity of the Lambert–Beer law.

[2] = test system: Gram-positive bacteria; test: Broth microdilution, summary over reference Gram-positive bacteria; format: cell-based; conditions: for antibacterial activity in words: reference Gram-positive bacteria / studied bacteria
Outline: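 Two-fold dilutions in RPMI 1640 with MOPS (fungi) or Mueller-Hinton broth (bacteria), final 1000–0.488 µg/mL, inoculum 0.5 McFarland in 0.85% NaCl. MIC read spectrophotometrically; MBC/MFC as lowest concentration with no visible growth after well contents were spotted onto agar.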

[3] = test system: Staphylococcus epidermidis ATCC 12228; test: Broth microdilution MIC/MBC; conditions: ATCC12228
[4] = range over the reference Gram-positive bacteria
[5] = range over the reference Gram-positive bacteria, read-out: MBC
[6] = range over the reference Gram-positive bacteria, read-out: MIC

`O=C(N/N=C/c1cc(I)cc(I)c1O)c1ccccc1I` [Compound 14, N-[(3,5-diiodo-2-hydroxyphenyl)methylidene]-2-iodobenzohydrazide] was tested, and the cell proliferation ([1]; L929, 24h, 10 µM, Repeat No 1) was 94%, the cell proliferation ([1]; L929, 24h, 10 µM, Repeat No 2) was 94% and the cell proliferation ([1]; L929, 24h, 25 µM, Repeat No 1) was 100%. It also gave a cell proliferation ([1]; L929, 24h, 25 µM, Repeat No 2) of 89%, a cell proliferation ([1]; L929, 24h, 50 µM, Repeat No 1) of 85% and a cell proliferation ([1]; L929, 24h, 50 µM, Repeat No 2) of 73%. For the same molecule, the cell proliferation ([1]; L929, 24h, 75 µM, Repeat No 1) was 77%, the cell proliferation ([1]; L929, 24h, 75 µM, Repeat No 2) was 69% and the cell proliferation ([1]; L929, 24h, 100 µM, Repeat No 1) was 91%. For the same molecule, the cell proliferation ([1]; L929, 24h, 100 µM, Repeat No 2) was 97%, the cytotoxicity ([1]; dose of 75 µM) was “around 40%” and the cytotoxicity ([1]; tested doses 10–100 µM) was “approximately 20%”. It also gave a cell proliferation ([1]; L929, 48h, 10 µM, Repeat No 1) of 75%, a cell proliferation ([1]; L929, 48h, 10 µM, Repeat No 2) of 99% and a cell proliferation ([1]; L929, 48h, 25 µM, Repeat No 1) of 106%. It also gave a cell proliferation ([1]; L929, 48h, 25 µM, Repeat No 2) of 99%, a cell proliferation ([1]; L929, 48h, 50 µM, Repeat No 1) of 83% and a cell proliferation ([1]; L929, 48h, 50 µM, Repeat No 2) of 98%. It also gave a cell proliferation ([1]; L929, 48h, 75 µM, Repeat No 1) of 83%, a cell proliferation ([1]; L929, 48h, 75 µM, Repeat No 2) of 89% and a cell proliferation ([1]; L929, 48h, 100 µM, Repeat No 1) of 94%. The cell proliferation ([1]; L929, 48h, 100 µM, Repeat No 2) was 101%, the MBC/MIC [2, 4] was 1–4 and the MBC [2, 5] was 125 to 1000 µg/mL (≈ 202 to 1620 µM). For the same molecule, the MIC [2, 6] was 62.5 to 500 µg/mL (≈ 101 to 809 µM), the “antibacterial activity in words” value [2] was “good or moderate” and the MBC [3] was 250 µg/mL (≈ 405 µM). For the same molecule, the MIC [3] was 125 µg/mL (≈ 202 µM).

With `O=C(N/N=C/c1cc(Cl)cc(I)c1O)c1cccc(I)c1` [Compound 20, N-[(5-chloro-2-hydroxy-3-iodophenyl)methylidene]-3-iodobenzohydrazide] the cell proliferation ([1]; L929, 24h, 10 µM, Repeat No 1) was 99%, the cell proliferation ([1]; L929, 24h, 10 µM, Repeat No 2) was 104% and the cell proliferation ([1]; L929, 24h, 25 µM, Repeat No 1) was 89%. For the same molecule, the cell proliferation ([1]; L929, 24h, 25 µM, Repeat No 2) was 95%, the cell proliferation ([1]; L929, 24h, 50 µM, Repeat No 1) was 87% and the cell proliferation ([1]; L929, 24h, 50 µM, Repeat No 2) was 112%. It also gave a cell proliferation ([1]; L929, 24h, 75 µM, Repeat No 1) of 103%, a cell proliferation ([1]; L929, 24h, 75 µM, Repeat No 2) of 96% and a cell proliferation ([1]; L929, 24h, 100 µM, Repeat No 1) of 86%. The cell proliferation ([1]; L929, 24h, 100 µM, Repeat No 2) was 94%, the cytotoxicity ([1]; tested doses 10–100 µM) was “approximately 20%” and the cell proliferation ([1]; L929, 48h, 10 µM, Repeat No 1) was 91%. The cell proliferation ([1]; L929, 48h, 10 µM, Repeat No 2) was 102%, the cell proliferation ([1]; L929, 48h, 25 µM, Repeat No 1) was 88% and the cell proliferation ([1]; L929, 48h, 25 µM, Repeat No 2) was 93%. The cell proliferation ([1]; L929, 48h, 50 µM, Repeat No 1) was 94%, the cell proliferation ([1]; L929, 48h, 50 µM, Repeat No 2) was 99% and the cell proliferation ([1]; L929, 48h, 75 µM, Repeat No 1) was 94%. For the same molecule, the cell proliferation ([1]; L929, 48h, 75 µM, Repeat No 2) was 99%, the cell proliferation ([1]; L929, 48h, 100 µM, Repeat No 1) was 87% and the cell proliferation ([1]; L929, 48h, 100 µM, Repeat No 2) was 84%. For the same molecule, the MBC [2] was 3.91 to 62.5 µg/mL (≈ 7.43 to 119 µM), the MIC [2] was 1.95 to 7.81 µg/mL (≈ 3.7 to 14.8 µM) and the MBC/MIC [2, 4] was 1–4. For the same molecule, the “antibacterial activity in words” value [2] was “very strong (very strong bioactivity as a MIC < 10 µg/mL)”, the MBC [3] was 7.81 µg/mL (≈ 14.8 µM) and the MIC [3] was 1.95 µg/mL (≈ 3.7 µM).

`O=C(N/N=C/c1cc(Br)cc(Br)c1O)c1cccc(I)c1` [Compound 21, N-[(3,5-dibromo-2-hydroxyphenyl)methylidene]-3-iodobenzohydrazide] gave a cell proliferation ([1]; L929, 24h, 10 µM, Repeat No 1) of 96%, a cell proliferation ([1]; L929, 24h, 10 µM, Repeat No 2) of 102% and a cell proliferation ([1]; L929, 24h, 25 µM, Repeat No 1) of 101%. The cell proliferation ([1]; L929, 24h, 25 µM, Repeat No 2) was 97%, the cell proliferation ([1]; L929, 24h, 50 µM, Repeat No 1) was 100% and the cell proliferation ([1]; L929, 24h, 50 µM, Repeat No 2) was 106%. It also gave a cell proliferation ([1]; L929, 24h, 75 µM, Repeat No 1) of 118%, a cell proliferation ([1]; L929, 24h, 75 µM, Repeat No 2) of 109% and a cell proliferation ([1]; L929, 24h, 100 µM, Repeat No 1) of 89%. For the same molecule, the cell proliferation ([1]; L929, 24h, 100 µM, Repeat No 2) was 96%, the cytotoxicity ([1]; tested doses 10–100 µM) was “approximately 20%” and the cell proliferation ([1]; L929, 48h, 10 µM, Repeat No 1) was 94%. It also gave a cell proliferation ([1]; L929, 48h, 10 µM, Repeat No 2) of 98%, a cell proliferation ([1]; L929, 48h, 25 µM, Repeat No 1) of 89% and a cell proliferation ([1]; L929, 48h, 25 µM, Repeat No 2) of 97%. For the same molecule, the cell proliferation ([1]; L929, 48h, 50 µM, Repeat No 1) was 89%, the cell proliferation ([1]; L929, 48h, 50 µM, Repeat No 2) was 88% and the cell proliferation ([1]; L929, 48h, 75 µM, Repeat No 1) was 104%. For the same molecule, the cell proliferation ([1]; L929, 48h, 75 µM, Repeat No 2) was 96%, the cell proliferation ([1]; L929, 48h, 100 µM, Repeat No 1) was 89% and the cell proliferation ([1]; L929, 48h, 100 µM, Repeat No 2) was 84%. For the same molecule, the MBC [2] was 3.91 to 62.5 µg/mL (≈ 7.46 to 119 µM), the MIC [2] was 3.91 to 15.6 µg/mL (≈ 7.46 to 29.8 µM) and the MBC/MIC [2, 4] was 1–4. For the same molecule, the “antibacterial activity in words” value [2] was “strong or very strong”, the MBC [3] was 31.2 µg/mL (≈ 59.6 µM) and the MIC [3] was 7.81 µg/mL (≈ 14.9 µM).

In the case of `O=C(N/N=C/c1cc(Cl)cc(I)c1O)c1ccc(I)cc1` [Compound 27, N-[(5-chloro-2-hydroxy-3-iodophenyl)methylidene]-4-iodobenzohydrazide], the cell proliferation ([1]; L929, 24h, 10 µM, Repeat No 1) is reported as 101%, the cell proliferation ([1]; L929, 24h, 10 µM, Repeat No 2) is reported as 89% and the cell proliferation ([1]; L929, 24h, 25 µM, Repeat No 1) is reported as 96%. The cell proliferation ([1]; L929, 24h, 25 µM, Repeat No 2) was 92%, the cell proliferation ([1]; L929, 24h, 50 µM, Repeat No 1) was 95% and the cell proliferation ([1]; L929, 24h, 50 µM, Repeat No 2) was 81%. It also gave a cell proliferation ([1]; L929, 24h, 75 µM, Repeat No 1) of 103%, a cell proliferation ([1]; L929, 24h, 75 µM, Repeat No 2) of 107% and a cell proliferation ([1]; L929, 24h, 100 µM, Repeat No 1) of 92%. The cell proliferation ([1]; L929, 24h, 100 µM, Repeat No 2) was 91%, the cytotoxicity ([1]; tested doses 10–100 µM) was “approximately 20%” and the cell proliferation ([1]; L929, 48h, 10 µM, Repeat No 1) was 92%. It also gave a cell proliferation ([1]; L929, 48h, 10 µM, Repeat No 2) of 89%, a cell proliferation ([1]; L929, 48h, 25 µM, Repeat No 1) of 95% and a cell proliferation ([1]; L929, 48h, 25 µM, Repeat No 2) of 99%. The cell proliferation ([1]; L929, 48h, 50 µM, Repeat No 1) was 92%, the cell proliferation ([1]; L929, 48h, 50 µM, Repeat No 2) was 91% and the cell proliferation ([1]; L929, 48h, 75 µM, Repeat No 1) was 99%. For the same molecule, the cell proliferation ([1]; L929, 48h, 75 µM, Repeat No 2) was 92%, the cell proliferation ([1]; L929, 48h, 100 µM, Repeat No 1) was 87% and the cell proliferation ([1]; L929, 48h, 100 µM, Repeat No 2) was 92%. For the same molecule, the MBC/MIC [2, 4] was 1–4, the MBC [2, 5] was 31.2 to 500 µg/mL (≈ 59.4 to 950 µM) and the MIC [2, 6] was 31.2 to 125 µg/mL (≈ 59.4 to 237 µM). The “antibacterial activity in words” value [2] was “good (good bioactivity as a MIC in the range 26 – 125 µg/mL)”, the MBC [3] was 31.2 µg/mL (≈ 59.4 µM) and the MIC [3] was 31.2 µg/mL (≈ 59.4 µM).
